Data set [1] in a line: in vitro. The following applies: dog.
In data set [2] the test system is influenza virus A/Puerto Rico/8/34 (H1N1). Conditions: for SI (CC50/IC50): influenza virus A/Puerto Rico/8/34 (H1N1), MDCK cells.
In data set [3] the test system is bovine diarrhea virus (BDV) (strain VC-1). Briefly: Antiviral activity against BDV on CCV cells. The format is cell-based.
Data set [4] deals with herpes simplex virus type 1 (HSV-1, strain VR-3). The data set can be described thus: Antiviral activity against HSV-1 on Vero cells. The format is cell-based. Conditions: HSV-1, Vero cells, moi 0.01, 3 days.
For data set [5], the system named is vaccine virus (VV, strain Copenhagen). The data set can be described thus: organism not typed. The format is cell-based.
The test system of data set [6] is MDCK cell line. The following applies: MTT, 72 h.
Where [7] appears, read: CC50, MDCK cell line, MTT, 72 h.

A word on the IC50: it is the midpoint of a concentration-inhibition curve.

`CSc1ccc(-c2c(C(F)(F)F)n(C)n(-c3ccccc3)c2=O)cc1` [Compound 3g] returned a CC50 in data set [1] (setting [7]) of 263 ± 19 µM. Besides, the IC50 in data set [2] is above 91 µM.
Regarding `NC(=O)c1ncn([C@@H]2O[C@H](CO)[C@@H](O)[C@H]2O)n1` [Ribavirin, reference compound], the CC50 in data set [1] is above 2130 µM. Also, the “SI (CC50/IC50)” value in data set [2] worked out at 59.
Turning to `Cn1c(C(F)(F)F)c(I)c(=O)n1-c1ccccc1` [Compound 5a, 4-iodo-5-trifluoromethyl-antipyrine], the 50% inhibitory concentration (IC50) is 46.9 ± 2 µM in data set [3] (72 h); “Inactive” in data set [4]; 103 ± 10 µM in data set [5] (Vero, 72 h). For the same molecule, the “SIVDC (selectivity index)” value in data set [3] (BDV, CCV cells) stood at 6.4. In addition, the “activity against bovine diarrhea virus (strain VC-1), in words” value in data set [3] (CCV cells) is on record as “weak activity”. In addition, the “SIBOB (selectivity index)” value in data set [5] (VV, Vero cells) is given as 2.9. Moreover, in data set [5] (Vero cells), the “activity against the vaccine virus (strain Copenhagen), in words” value is “weak activity”. The same molecule yielded a CC50 in data set [1] (setting [7]) above 815 µM.
`Cn1c(C(F)(F)C(F)(F)F)c(I)c(=O)n1-c1ccccc1` [Compound 5b]: the CC50 in data set [1] (setting [7]) was 378 ± 26 µM.
Turning to `Cn1c(C(F)(F)F)c(C#Cc2ccccc2)c(=O)n1-c1ccccc1` [Compound 6a, 1-methyl-2-phenyl-4-(phenylethynyl)-5-(trifluoromethyl)-1,2-dihydro-3H-pyrazol-3-one], the CC50 in data set [6] was above 877 µM; in data set [1] (setting [7]), above 815 µM. The “SI (CC50/IC50)” value in data set [2] was determined as 15.
